Positions count from the first letter of the chain named.

Results on 2 compounds are retold here after article PMC10840383, “Clinical features, functional consequences, and rescue pharmacology of missense GRID1 and GRID2 human variants” (Human Molecular Genetics, 2023).

One assay deals with T1, GluD2-S646P (Rattus norvegicus, UniProt Q63226, S646P).
T1 construct: expressed in transfected cells; host or cells: Xenopus laevis oocytes injected with cRNA
T1 sequence (Q63226 24-1007 S646P): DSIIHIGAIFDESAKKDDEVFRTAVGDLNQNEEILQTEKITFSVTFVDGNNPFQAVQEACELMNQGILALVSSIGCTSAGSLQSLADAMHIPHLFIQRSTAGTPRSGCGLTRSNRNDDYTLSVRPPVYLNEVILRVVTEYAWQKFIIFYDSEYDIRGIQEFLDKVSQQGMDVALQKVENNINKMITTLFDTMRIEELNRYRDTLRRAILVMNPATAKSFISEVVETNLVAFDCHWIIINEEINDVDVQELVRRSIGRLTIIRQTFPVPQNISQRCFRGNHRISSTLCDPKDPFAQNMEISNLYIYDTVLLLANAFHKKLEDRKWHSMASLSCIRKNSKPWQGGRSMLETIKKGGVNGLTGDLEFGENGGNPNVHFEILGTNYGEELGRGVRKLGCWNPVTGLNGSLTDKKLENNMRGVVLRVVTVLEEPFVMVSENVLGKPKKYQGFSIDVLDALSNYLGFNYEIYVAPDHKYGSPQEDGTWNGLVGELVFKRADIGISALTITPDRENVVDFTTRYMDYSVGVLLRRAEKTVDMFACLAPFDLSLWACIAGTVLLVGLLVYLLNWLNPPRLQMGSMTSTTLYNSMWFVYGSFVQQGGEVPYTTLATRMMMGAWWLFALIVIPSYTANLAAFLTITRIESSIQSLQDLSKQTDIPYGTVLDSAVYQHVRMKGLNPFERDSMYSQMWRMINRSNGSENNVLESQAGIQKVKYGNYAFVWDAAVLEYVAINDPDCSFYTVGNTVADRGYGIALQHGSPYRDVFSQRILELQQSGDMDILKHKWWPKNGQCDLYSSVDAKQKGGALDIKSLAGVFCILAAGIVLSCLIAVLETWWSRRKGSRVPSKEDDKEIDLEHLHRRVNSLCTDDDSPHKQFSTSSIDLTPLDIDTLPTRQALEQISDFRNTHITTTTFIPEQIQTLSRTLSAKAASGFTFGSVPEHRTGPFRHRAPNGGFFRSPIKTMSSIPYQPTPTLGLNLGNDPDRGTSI
The assay can be described thus: TEVC of constitutive current, Xenopus oocytes expressing GluD2-S646P. It is filed as cell-based. Conditions: positive = increase, negative = decrease of activity.

The target of a further assay is T2, GluD2-T649M (Rattus norvegicus, UniProt Q63226, T649M).
T2 construct: expressed in transfected cells; host or cells: Xenopus laevis oocytes injected with cRNA
T2 sequence (Q63226 24-1007 T649M): T1 sequence (Q63226 24-1007 S646P) with P623S, T626M
The assay can be described thus: TEVC of constitutive current, Xenopus oocytes expressing GluD2-T649M. It is filed as cell-based. Conditions: positive = increase, negative = decrease of activity.

Regarding `N[C@H](CO)C(=O)O` [D-serine], the “D-Serine effect (Baseline −10 mM D-Serine)” value at GluD2-S646P (10 mM D-serine) is on record as 5.2 ± 6.0 (11) nA; on GluD2-T649M (10 mM D-serine), −0.31 ± 2.8 (16) nA.

As for `N=C(N)c1ccc(OCCCCCOc2ccc(C(=N)N)cc2)cc1` [Pentamidine, pentamidine], the “Pentamidine effect (Baseline −100 μM Pentamidine)” value on GluD2-S646P (100 μM pentamidine) is 6.5 ± 5.4 (11) nA; on GluD2-T649M (100 μM pentamidine) it was 5.8 ± 7.0 (16) nA.
